# According to ChEMBL document CHEMBL3046334 (Med Chem Res, 2012):
# Molecular target: T1, Prostaglandin G/H synthase 2 (Homo sapiens, UniProt P35354)
# T1 sequence (P35354 whole entry): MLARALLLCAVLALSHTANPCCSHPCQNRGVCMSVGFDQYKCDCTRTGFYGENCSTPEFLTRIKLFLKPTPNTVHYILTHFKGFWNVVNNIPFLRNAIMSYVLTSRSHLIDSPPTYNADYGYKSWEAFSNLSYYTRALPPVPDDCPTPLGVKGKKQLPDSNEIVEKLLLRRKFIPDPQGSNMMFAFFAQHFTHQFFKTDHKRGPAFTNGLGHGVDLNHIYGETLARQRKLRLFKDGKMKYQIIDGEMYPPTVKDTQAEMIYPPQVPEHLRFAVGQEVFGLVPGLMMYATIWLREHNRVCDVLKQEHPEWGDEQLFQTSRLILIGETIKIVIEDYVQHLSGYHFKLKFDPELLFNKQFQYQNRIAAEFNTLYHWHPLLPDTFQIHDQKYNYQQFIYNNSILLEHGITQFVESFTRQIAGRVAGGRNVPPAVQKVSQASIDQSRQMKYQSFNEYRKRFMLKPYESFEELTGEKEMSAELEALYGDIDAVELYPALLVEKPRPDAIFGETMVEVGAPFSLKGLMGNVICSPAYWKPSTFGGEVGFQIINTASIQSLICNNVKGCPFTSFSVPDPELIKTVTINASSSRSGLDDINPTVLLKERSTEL
# Assay: Inhibition of COX2 in Homo sapiens (human) whole blood
row,SMILES,IC50
1,CS(=O)(=O)c1ccc(-c2nc(NC3CC=CCC3)cc(C(F)(F)F)n2)cc1 (centres undefined),0.0329 µM
2,CS(=O)(=O)c1ccc(-c2nc(NCCCc3cccs3)cc(C(F)(F)F)n2)cc1,1.21 µM
3,Cn1cccc1CCCNc1cc(C(F)(F)F)nc(-c2ccc(S(C)(=O)=O)cc2)n1,3.98 µM
4,NS(=O)(=O)c1ccc(-c2nc(NCc3ccccc3)cc(C(F)(F)F)n2)cc1,3.33 µM
